Where a name gives a salt, the structure may show the parent alone. Activity calls are given as the source filed them. No rule for the calls is given here.
Experiment: Cytotoxicity activity against human HepG2 cells assessed by CellTiter-Glo luminescent cell viability assay.
Assay type: toxicity, cell-based
Set-up: assay stage confirmatory assay, source tissue liver
Settings: HepG2 cells, read-out: IC50 relative

Structure (SMILES) | CC50
O=C1Nc2ccccc2C2(CCN(CCc3ccc(C(F)(F)F)cc3)CC2)O1 | 10.7 µM (active)
CCc1cccc2c(C3CCNCC3)c[nH]c12 | 11.4 µM (active)
Cn1ncc(N2CCC(C(=O)N3CCN(CCOc4ccc(Cl)cc4)CC3)C2)cc1=O (stereo not drawn) | 5 µM (active)
C[C@]12CCC3[C@@H](CC[C@]4(O)C[C@@H](O)CC[C@]34C=O)[C@@]1(O)CC[C@@H]2C1=CC(=O)OC1 (stereo partly drawn) | 0.4 µM (active)
COc1cc(C)c(Sc2cnc(NC(=O)c3ccc(CNC(C)C(C)(C)C)cc3)s2)cc1C(=O)N1CCN(C(C)=O)CC1 (stereo not drawn) | 7.5 µM (active)
O=C1Nc2cc(Cl)ccc2Oc2ccc(S(=O)(=O)N3CCCC3)cc21 | 6.4 µM (active)
COc1cccc(-c2cc(F)ccc2[C@H]2Cc3nc(N)nc(C)c3C(=O)N2)n1 | < 0.1 µM (active)
Cc1coc2c1C(=O)C(=O)c1c-2ccc2c1CCCC2(C)C [TANSHINONE IIA] | 5 µM (active)
CN(C)C(=O)N[C@H]1CC[C@H](CCN2CCN(c3cccc(Cl)c3Cl)CC2)CC1 [CARIPRAZINE HYDROCHLORIDE] | 14.1 µM (active)
O=C(Nc1cnn(-c2ccccn2)c1)c1ccc(O)c(Cl)c1 | 50 µM (inactive)
O=C(CCC1CCCN(c2cc(NC3CC3)ncn2)C1)N1CCN(c2ccc(F)cc2)CC1 (stereo not drawn) | 9.1 µM (active)
O=[N+]([O-])c1ccc(CN2CCOCCOCCN(Cc3ccc([N+](=O)[O-])cc3)CCOCC2)cc1 | 10.4 µM (active)
NCC(=O)Nc1ccc(-n2nc(C(F)(F)F)cc2-c2ccc3c(ccc4ccccc43)c2)cc1 [AR-12] | 50 µM (inactive)
Cc1ccc(C)c(C(=O)CN2C3=NCCCN3c3ccccc32)c1 | 9.6 µM (active)
c1ccc(CN2C[C@H]3CCNC[C@H]32)cc1 | 15.9 µM (inactive)
COc1cccc(Nc2nc(N3CCN(C)CC3)nc3c2cnn3C)c1 | 14 µM (inactive)
COc1ccc(OC)c(N2C[C@@H](C(=O)Nc3ccc(Cl)cn3)CC2=O)c1 | 4.7 µM (active)
COc1ccc(C(N)=O)cc1NC(=O)c1cc(Br)c[nH]1 | 1.2 µM (active)
O=C(NCCN1CCOCC1)C1CCN(c2nn3cc(-c4ccc(F)cc4)nc3s2)CC1 | 10.5 µM (active)
CN(C)CCN(C)CCc1ccc(Cl)c(Cl)c1 | 15.3 µM (inactive)
CCn1c(=O)c(C(=O)Nc2cccc(OC)c2)c(O)c2ccccc21 | 2.4 µM (inactive)
NCC(c1ccc(Cl)cc1)C1CCCC1 (stereo not drawn) | 8 µM (active)

Structure (SMILES) | CC50
CSc1ccc2c(c1)C(N1CCN(C)CC1)Cc1ccccc1S2 (stereo not drawn) [METITEPINE] | 4.9 µM (active)
C=CC(=O)N1CCN(CCCn2c(=O)c(-c3c(Cl)c(OC)cc(OC)c3Cl)cc3cnc(NC)nc32)CC1 [PRN-1371] | 9.6 µM (active)
O=C(Nc1cccc(Cl)c1O)c1sccc1Br | 0.8 µM (active)
COc1ccc(-n2ccc(CNc3ncnc(N)c3Cl)n2)cc1 | 3.1 µM (active)
CCN(c1ccc(C(=O)Nc2ccccc2O)cc1)C(C)C | 11.9 µM (active)
NC(=O)c1cnc(NCCc2ccc(O)c(Cl)c2)nc1NCc1ccccc1 | 4.2 µM (active)
CNC(=O)c1c(F)cccc1Nc1nc(Nc2cc3c(cc2OC)CCN3C(=O)CN(C)C)nc2[nH]ccc12 | 3.6 µM (active)
CCn1cc(-c2cccc(C(F)(F)F)c2)c2sc(C(=N)NC3CCS(=O)(=O)CC3)cc2c1=O | 11.1 µM (active)
O=C(c1c(F)ccc(NS(=O)(=O)N2CC[C@@H](F)C2)c1F)c1c[nH]c2ncc(-c3cnc(C4CC4)nc3)cc12 [PLIXORAFENIB] | 5.4 µM (active)
O=C(NCc1ccc(-n2ccnc2)nc1)c1ccnc(O[C@H]2CCOC2)c1 | 8.9 µM (active)
CS(=O)(=O)N1CCc2ccc(NC(=O)Nc3cccc(C#N)c3)cc21 | 9.7 µM (active)
O=C1c2ccccc2C(=O)N1Cn1ncc(Cl)c(Cl)c1=O | 11.5 µM (active)
CC(C)c1ccc(CN2CCN(C(=O)CN(C)C(=O)c3ccco3)CC2)cc1 | 4.4 µM (active)
Cc1ccn(-c2ccc(NC(=O)c3ccccn3)cc2)n1 | 4.5 µM (active)
COc1cc2c(cc1OC)CN(CCc1ccc(NC(=O)c3cc(OC)c(OC)cc3NC(=O)c3cnc4ccccc4c3)cc1)CC2 | 27.3 µM (inactive)
CC1=C(c2ccccc2)C1C(=O)NC1(C(N)=O)CCCCC1 (stereo not drawn) | 14.7 µM (active)
CC1(C)[C@H]2CC=C(CCNC(=O)C3CCN(C(=O)c4ccccn4)CC3)[C@@H]1C2 | 4.5 µM (inactive)
CS(=O)(=O)N1CCc2ccc(NC(=O)Nc3cccc(Cl)c3)cc21 | 1.3 µM (active)
CC(C)c1c(O)cc(/C=C/c2ccccc2)cc1O [TAPINAROF] | 8.9 µM (active)
OCC1CCCN(CCNCc2ccc(Cl)c(Cl)c2)C1 (stereo not drawn) | 5.7 µM (active)
Cn1c(=O)n(-c2ccc(C(C)(C)C#N)cc2)c2c3cc(-c4cnc5ccccc5c4)ccc3ncc21 [DACTOLISIB TOSYLATE] | 0.1 µM (active)
CCC[C@]1(C)NC(=O)N(Cc2cc(-c3ccccc3)on2)C1=O | 2.4 µM (active)

Structure (SMILES) | CC50
O=C(CN1C(=O)COc2ccc(S(=O)(=O)N3CCCC3)cc21)N1CCN(Cc2ccccc2)CC1 | 50 µM (inactive)
CC(C)(C)NC(=O)[C@@H]1C[C@@H]2CCCC[C@@H]2CN1CC(O)[C@H](Cc1ccccc1)NC(=O)[C@@H](CC(N)=O)NC(=O)c1ccc2ccccc2n1 (stereo partly drawn) | 15.7 µM (inactive)
COc1ccc(C(=O)N2CCN(c3ncnc4cccc(F)c34)CC2)cc1 | 9.4 µM (active)
CNc1cc2c(Nc3cccc(Br)c3)ncnc2cn1 | 20.5 µM (inactive)
CC1(C)CCC2=C(O1)c1ccccc1C(=O)C2=O [LAPACHONE] | 2.3 µM (active)
COc1ccc(-c2nc(CC3CCN(C(=O)NC(C)(C)C)C3)no2)cc1 (stereo not drawn) | 7.8 µM (active)
CN1CCN(CCCCOc2ccc(-c3ccccc3)cc2)CC1 | 4 µM (active)
COCCOc1ccc2c(c1)ncn2-c1ccc2cccc(N3CCC(N)CC3)c2n1 | 8.2 µM (active)
COc1ccc(OCCCN2CCN(S(=O)(=O)c3ccc(S(N)(=O)=O)cc3)CC2)cc1 | 15.9 µM (inactive)
NCCNS(=O)(=O)c1cccc2cnccc12 | 13.2 µM (inactive)
Cc1ccc(Cc2cnc(NC(=O)NC[C@H](C)CN3CCN(C)CC3)s2)cc1 | 7.6 µM (active)
COc1ccc(C)cc1CN(C)C(=O)CCn1c(=O)[nH]c(=O)c2ccccc21 | 0.2 µM (active)
c1cc(N2CCC[C@H]2C2CCCCC2)nc(C2CC2)n1 | 11.8 µM (active)
CCN(CC)Cc1ccccc1CNC(=O)N(CC)C[C@H]1COc2ccccc2O1 | 10.8 µM (active)
CC(C)CN(CCS(=O)(=O)c1ccc(C(C)(C)C)cc1)C1CCN(C)CC1 | 4.4 µM (active)
CC(C)N(CCNS(=O)(=O)c1ccc(-n2ncc(Cl)c(Cl)c2=O)cc1)C(C)C | 1.3 µM (active)
COc1ccc(C(N)=O)c(OCc2cn3ccccc3c2C#N)c1 | 10.7 µM (inactive)
CC(C)NC(=O)N1CC(Oc2ccc(-c3noc(-c4cccnc4)n3)cc2)C1 | 3.4 µM (active)
O=C1c2c(O)ccc(O)c2C(=O)c2c(NCCNCCO)ccc(NCCNCCO)c21 [MITOXANTRONE] | 0.8 µM (active)
COc1ccc(CCN2C(=O)N(C)C(=O)C23CCN(Cc2cccc(OC)c2)CC3)cc1 | 6.6 µM (active)
CC(C)Oc1ccc(-c2c[nH]cc2CN(C)CCN)cc1 | 23.3 µM (inactive)
COC(=O)[C@H]1[C@H]2C[C@@H]3c4[nH]c5cc(OC)ccc5c4CCN3C[C@H]2C[C@@H](OC(=O)c2cc(OC)c(OC)c(OC)c2)[C@@H]1OC [RESERPINE] | 11.8 µM (active)

Structure (SMILES) | CC50
NCC[C@H](N)C(=O)N1CCC2(CCC(=O)N(Cc3ccccc3)C2)CC1 | 11.5 µM (active)
CC(C)n1nc(-c2cc3cc(O)ccc3[nH]2)c2c(N)ncnc21 | 2.6 µM (active)
CCCN1C(=O)COc2cc(-c3noc(C(=O)NC4CCN(Cc5ccccc5)CC4)n3)ccc21 | 15.2 µM (inactive)
Cc1ccc(S(=O)(=O)N2CCN(c3cc(-n4ccnc4C)ncn3)CC2)cc1C | 5.1 µM (active)
O=C(c1ccoc1)N1CCCN(Cc2ccc3c(c2)OCO3)c2ccccc21 | 20.4 µM (inactive)
Fc1ccc(C(CCNC[C@@H]2[C@H]3CNC[C@@H]23)c2ccco2)cc1 (stereo partly drawn) | 7.1 µM (active)
O=C(Cc1ccsc1)Nc1nc(-c2ccccn2)cs1 | 3.2 µM (active)
CCN(CC)CCCNC(=O)C1CCN(c2ncc(-c3ccccc3)cn2)CC1 | 9.7 µM (active)
CC(=O)Nc1ccc(Nc2nc(C)cc(N3CCCC3)n2)cc1 | 10.2 µM (active)
COc1ccccc1C(=O)Nc1cc2c(cc1N1CCNC[C@H]1C)n(C)c(=O)n2C | 16.9 µM (inactive)
CSc1cccc(NS(=O)(=O)c2ccc3c(c2)CCN3C(C)=O)c1 | 6.6 µM (active)
Cc1ccc(NC(=O)Cc2ccc(-n3cccc3)cc2)nc1 | 1.6 µM (active)
C[C@H]1O[C@@H](O[C@H]2[C@@H](O)C[C@H](O[C@H]3[C@@H](O)C[C@H](O[C@H]4CC[C@@]5(C)[C@H](CC[C@@H]6[C@@H]5C[C@@H](O)[C@]5(C)[C@@H](C7=CC(=O)OC7)CC[C@]65O)C4)O[C@@H]3C)O[C@@H]2C)C[C@H](O)[C@@H]1O [DIGOXIN] | 0.2 µM (active)
C=CCNc1c(O)cc2c(O)c1C[C@@H](C)C[C@H](OC)[C@H](O)[C@@H](C)/C=C(/C)[C@H](OC(N)=O)[C@@H](OC)/C=C\C=C(\C)C(=O)N2 | 0.1 µM (active)
COc1cc(NCc2ccc3nc(N)nc(N)c3c2C)cc(OC)c1OC [TRIMETREXATE] | 1.7 µM (active)
COc1ccc(CCN2CCC(Nc3nc4ccccc4n3Cc3ccc(F)cc3)CC2)cc1 [ASTEMIZOLE] | 1.5 µM (active)
CC[C@H](C)n1cc(C)c2c(C(=O)NCc3c(C)cc(C)[nH]c3=O)cc(-c3ccc(N4CCNCC4)nc3)cc21 [GSK2816126] | 4.9 µM (active)
Cc1c(O)cccc1C(=O)NC(CSc1ccccc1)C(O)CN1CC2CCCCC2CC1C(=O)NC(C)(C)C (stereo not drawn) | 11.3 µM (active)
Cc1cn2c(=O)c(S(=O)(=O)NCC3CCN(Cc4ccc(Cl)cc4)CC3)c(C)nc2s1 | 11.9 µM (active)
CC1(C)C2CC=C(CN(CCN3CCNCC3)C(=O)c3ccccc3Cl)C1C2 (stereo not drawn) | 14.3 µM (inactive)
O=C1CCCN1c1ccc(S(=O)(=O)Nc2cccc3cccnc23)cc1 | 9.7 µM (active)
CN(C)C(=O)c1cccc(CN(C)c2ccccc2CO)c1 | 10.9 µM (active)

From ChEMBL document CHEMBL5303711, “ECBD screening data for assay EOS300108” (2023)
